Results taken from patent US5858670A, “Bio-oligomer libraries and a method of use thereof” (The Arizona Board of Regents, priority 1996, dated 1999).
Like-named read-outs stand apart in the source and are kept apart here. Where no end group is shown, it is not given here. [ ]: non-standard residue; d: D form. Ahx = NCCCCCC(=O)O; βAla = NCCC(=O)O

Legend:
[1] = molecular target: T1, streptavidin (Streptomyces avidinii, UniProt P22629); assay: biotin inhibition of LHPQF-resin staining by streptavidin-alkaline phosphatase; type: binding
T1 construct: purchased Pierce, Rockford, Ill
T1 sequence (P22629 25-183, species assumed): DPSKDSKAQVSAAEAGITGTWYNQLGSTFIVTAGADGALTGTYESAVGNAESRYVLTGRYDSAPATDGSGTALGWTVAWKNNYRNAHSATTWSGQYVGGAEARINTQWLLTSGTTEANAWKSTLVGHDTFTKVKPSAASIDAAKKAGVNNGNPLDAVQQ
Description: FIG. 8. […] A: 100 nM; B: 10 nM; C: 1 nM; and D: 0.1 nM biotin. Blank beads (β-Ala-aminocaproic acid-resin) were mixed 1:1 with the LHPQFD-resin prior to incubating with streptavidin-alkaline phosphatase to serve as an internal negative control.
The LHPQF-resin was then mixed with streptavidin-alkaline phosphatase in the presence of varying concentration of biotin. […] The inhibition study establishes that the HPQ consensus sequence binds to the biotin-binding site of streptavidin.

[2] = UV/VIS irradiation of ONb-linked peptide resins, HPLC of released product; type: physicochemical; conditions: in water
Description: Each peptide was irradiated for 1 and 3 hours with ultraviolet (UV) and visible (VIS) light in 0.3 ml of water or 3/7 mixture of chloroethanol:dichloromethane. A total of 16+16 experiments were run and assayed.
After exposure the supernatant was filtered off, lyophilized and re-dissolved to equal volumes of MeOH (0.3 ml). The products were analyzed on the HPLC.

[3] = molecular target: anti-v-mos MAb; assay: solution phase binding studies with [3H]Ac-v-mos radioligand; set-up: species or system mouse; conditions: competition with 20 nM [3H]Ac-v-mos for 10 μg/ml anti-v-mos MAb
Description: Peptide ligand affinity for anti-v-mos mAb was measured by solution phase binding studies using [^3 H]acetyl v-mos peptide ([^3 H]Ac-v-mos) as the radioligand. The radioligand was prepared by N-terminal acetylation of v-mos peptide, prior to the deprotection of the side chains, with an equimolar amount of [^3 H]sodium acetate (specific activity=2.52 Ci/mmole, New England Nuclear, Boston, Mass.). […] Specific binding was defined as the difference between [^3 H]Ac-v-mos binding in-the presence (nonspecific) and absence (total) of 100 μM unlabelled v-mos peptide for each [^3 H]Ac-v-mos concentration. Bound radioligand was separated by centrifugation using a 10-fold excess (binding capacity relative to immunoglobulin used) of Protein-G Sepharose (Pharmacia) to precipitate the antibody. […] Over 50% of the total binding was specific in the inhibition studies. Saturation and inhibition binding constants were determined for single site binding by nonlinear regression analysis as previously described (Knapp and Yamamura, 1990, Life Sci. 46:1457-1463).

[4] = system: anti-v-mos monoclonal antibody; assay: bead staining with anti-v-mos monoclonal antibody and alkaline phosphatase secondary antibody (Example 8); type: binding, mouse; conditions: 1 μg/ml MAb, secondary antibody 1:2000, BCIP/NBT, 15 minutes
Description: The long v-mos beads were mixed with a thousand fold excess of the short v-mos beads. Two milliliters of the purified anti-v-mos monoclonal antibody (1 μg/ml) in PBS with 0.1% Tween 20 was added to the mixture of long and short v-mos beads and incubated at room temperature for one hour with gentle mixing. […]. The beads were then washed on a small polypropylene disposable column (obtained from Isolab) where the beads were retained by the frit. The beads were then mixed with 2 ml of a secondary antibody at 1:2000 dilution for one hour. After washing, the beads were poured into a polystyrene petri dish and allowed to settle. The supernatant was removed and a solution of 5-bromo-4-chloro-3-indoyl phosphate and nitro blue tetrazolium was gently added as a substrate.
This made it possible immediately to detect a single dark bead within a lawn of thousands of colorless beads. The distinction between the beads is illustrated in FIGS. 2 to 4, all of which are photographs at 40× magnification of the beads distributed in petri dishes. […] Accordingly, the beads that contained the peptide sequence of interest were readily distinguished and isolated from the other beads in the library.

[5] = system: anti-v-mos; conditions: cited from earlier work
[6] = system: anti-v-mos monoclonal antibody; assay: PAM resin bead staining with anti-v-mos monoclonal antibody and labelled secondary antibody (Example 9); type: binding, mouse; conditions: 1 ug/ml MAb, secondary antibody 1:100, ABTS with H2O2, 15 minutes
Description: Approximately 0.1 mg of the PAM resin/v-mos peptide described above was mixed with a hundred-fold excess of N^β -Fmoc-alanine PAM resin beads obtained from Bachem, Inc. Two ml of the purified monoclonal antibody (1 ug/ml) in PBS plus 0.1% Tween 20 were added to the peptide/support mixture and incubated at room temperature for 45 minutes with gentle mixing.
The beads were washed on a small polypropylene disposable column (obtained from Isolab) which retained the beads on a frit. The beads were then mixed with 2 ml of […] secondary antibody (1:100 dilution) for one hour. After washing, the beads were spread on a piece of glass filter and soaked in 2,2'-azinobis (3-ethylbenzthiozoline sulfonic acid) (ABTS) substrate with H2 O2. […] A small surrounding lighter green halo formed on the glass filter. […] The v-mos beads were readily distinguished.

[7] = system: anti-β-endorphin MAb; assay: library bead screening with biotinylated anti-β-endorphin MAb and streptavidin-alkaline phosphatase; type: binding; conditions: recycled pentapeptide library, 16 hours with biotinylated MAb
Description: Prior to using the same random peptide library to screen with anti-β-endorphin MAb, all the blue beads that had stained for streptavidin-alkaline phosphatase alone were removed. The remaining beads were then treated with 8M guanidine hydrochloride to remove any bound protein. This recycled library was then mixed with biotinylated anti-β-endorphin MAb (anti-β-endorphin, clone 3-E7, was obtained commercially from Boehringer Mannheim, Indianapolis, Ind.) for 16 hours. After extensive washing, a secondary step with streptavidin-alkaline phosphatase was used to trigger the staining reaction for the ELISA. […] Peptide analogues with various carboxyl terminus of these ligand leads were synthesized and their affinity (Ki) was determined using [^3 H]Leu-enkaphalin (New England Nuclear, Boston, Mass.) as the labelled ligand and the unlabelled peptides as the competing ligand (anti-β-endorphin assay, Section 10.1.2, supra).

[8] = molecular target: anti-β-endorphin MAb; assay: anti-β-endorphin binding assay: peptide inhibition of [3H][Leu]enkephalin binding, solution phase; conditions: for Ki: competition with 5.0 nM [3H][Leu]enkephalin
Description: Peptide ligand binding affinities for the anti-β-endorphin monoclonal antibody were determined in solution phase. […] Specific binding was defined as the difference between binding measured in the presence or absence of 1.0 μM unlabelled [Leu]enkephalin. Bound radioligand was precipitated by the addition of a 10-fold excess of Protein-G Sepharose (Pharmacia) followed by an overnight incubation (23°-24° C.). The Protein-G Sepharose was collected by centrifugation (13,000×g for 5 minutes) and the pellets suspended in 250 μl 5% (v/v) acetic acid before transfer to vials for liquid scintillation counting. […] Peptide ligand inhibition curves were produced for eight concentrations of the peptide over a 400-fold range. Binding data for saturation and inhibition studies were analyzed by weighted-nonlinear regression methods using appropriate one site models reported by Knapp et al. (1990, J. Pharmacol. Exp. Ther. 255:1278-1282). Ki values for inhibition binding constants were calculated using the method of Cheng and Prusoff (1973, Biochem. Pharmacol. 22:3099-3102). Each Ki value was calculated from three to four independent determinations.

[9] = peptide with carboxyl terminus --NH2, read-out: Ki, Carboxyl Terminus --NH2
[10] = peptide with carboxyl terminus --OH, read-out: Ki, Carboxyl Terminus --OH

O=C(O)CCCC[C@@H]1SC[C@@H]2NC(=O)N[C@@H]21 [Biotin, biotin]
inhibition of staining of LHPQF-resin ([1]; biotin 0.1 nM): no effect on the staining | inhibition of staining of LHPQF-resin ([1]; biotin 1.0 nM): partially inhibited the staining | inhibition of staining of LHPQF-resin ([1]; biotin 10 nM): partially inhibited the staining | inhibition of staining of LHPQF-resin ([1]; biotin 100 nM): completely blocked staining | effect on staining of LHPQF-resin mimotope beads ([1]; biotin 100, 10, 1 and 0.1 nM (figure legend)): concentration-dependent inhibitory effect

Fmoc-Trp-Tyr (OBu^t)-Phe-βNb-gAla-ACA-EDA-PepSyn K [peptide i]
cleavage product [2]: cleaved to a single product

GFGSVY-NH2
Ki [3]: 246 to 337 µM

GFGSVY-OH
Ki [3]: > 1000 µM

GFGSVY[βAla]-NH2
Ki [3]: 409 to 442 µM

GFGSVY[βAla]-OH
Ki [3]: 529 to 770 µM

GRRAYE-NH2
Ki [3]: 24.7 ± 7 µM

GRRAYE-OH
Ki [3]: 6.79 ± 2.31 µM

GRRAYE[βAla]-NH2
Ki [3]: 9.02 to 20.4 µM

GRRAYE[βAla]-OH
Ki [3]: 15.1 ± 0.5 µM

GRREGP[βAla]-NH2
Ki [3]: 26.9 ± 6.2 µM

GRRGME-OH
Ki [3]: > 100 µM

GRRGME[βAla]-NH2
Ki [3]: 24 ± 8.4 µM

GRRPYG-OH
Ki [3]: > 1000 µM

GRRPYG[βAla]-NH2
Ki [3]: 20.5 ± 4.5 µM

GSVYKA [short v-mos beads, residue 106-111 of the v-mos gene product on polyacrylamide bead; negative control, reference compound]
bead colour after staining [4]: remained colorless

GSVYKA [short v-mos peptide]
affinity of the antibody [5]: negligible affinity

Gly-Phe-Gly-Ser-Val-Tyr-aminocaproic acid-β-Ala-resin (GFGSVY-{Ahx-βAla-PAM resin}) [PAM resin/v-mos peptide beads]
bead colour after staining [6]: turned dark green

LGSGGFGSVYKA [residues 100 to 111 of the v-mos oncogene product, reference compound]
Ki [3]: 3.2 ± 0.4 µM

Leu-Gly-Ser-Gly-Gly-Phe-Ser-Val-Tyr-Lys-Ala-aminocaproic acid-ethylenediamine resin [long v-mos beads]
bead colour after staining [4]: turned purple

YGALQ
identified as ligand bead in the screening [7]: identified in this screening

YGGFA
identified as ligand bead in the screening [7]: identified in this screening | Ki [8, 9]: 0.072 ± 0.0164 µM | Ki [8, 10]: 0.0329 ± 0.002 µM

YGGFQ
identified as ligand bead in the screening [7]: identified in this screening | Ki [8, 9]: 0.0401 ± 0.006 µM | Ki [8, 10]: 0.015 ± 0.0017 µM

YGGFT
identified as ligand bead in the screening [7]: identified in this screening | Ki [8, 9]: 0.0652 ± 0.0168 µM | Ki [8, 10]: 0.0369 ± 0.0077 µM

YGGLQ
Ki [8, 9]: 2.91 ± 0.695 µM | Ki [8, 10]: 1.98 ± 0.303 µM

YGGLS
identified as ligand bead in the screening [7]: identified in this screening | Ki [8, 9]: 0.991 ± 0.052 µM | Ki [8, 10]: 0.726 ± 0.134 µM

YGGMV
identified as ligand bead in the screening [7]: identified in this screening | Ki [8, 9]: 14 ± 1.11 µM | Ki [8, 10]: 8.78 ± 1.5 µM

[^3 H][Leu]enkephalin [reference compound]
Kd ([8]; saturation analysis, n=3, 5 radioligand concentrations 1.87-30 nM): 0.00979 ± 0.00463 µM
